According to patent US10500198B2, “Bis-benzylidine piperidone proteasome inhibitor with anticancer activity” (The Johns Hopkins University, priority 2013, dated 2019):

Legend:
[1] = system: tetraubiquitin-firefly luciferase (4UbFL) reporter in HeLa cells; assay: Cell culture assay for luciferase (4UbFL reporter); assay type: cell-based, human; details: 4 hr treatment
Procedure: Sub-confluent cultures of HeLa cells were transfected with 4UbFL or FL plasmids using Lipofectamine 2000 reagent (Life Technologies, Carlsbad, Calif.). […] Luciferase activity in cell lysate was determined with a luciferase assay kit (Promega, Madison, Wis.) according to the manufacturer's instructions. Bioluminescence was measured by using a Glomax Multidetection system (Promega, Madison, Wis., USA).
HeLa cells were transiently transfected with tetra ubiquitin-fused firefly luciferase (4UB-FL) plasmid. After 48 h, the transfected cells were treated with titrations of the indicated compounds for 4 h, and luciferase activity was measured. Data is expressed as a 4UB-FL fold change compared to untreated cells.

U266 cells = assay: Active caspase-3 by FACS; assay type: cell-based; details: 0.5 μM, 8 h
Procedure: U266 cells were treated with RA195 (0.5 μM) and Bz(0.5 μM) for the period of 8 h. Cells were stained for PE-conjugated Caspase-3 antibody and measured active caspase-3 by FACS.

NCI-H929 cells = assay: Active caspase-3 by FACS; assay type: cell-based, human; details: 0.5 μM, 8 h
Procedure: NCI-H929 cells were treated with RA195 (0.5 μM) and Bz(0.5 μM) for the period of 8 h. Cells were stained for PE-conjugated Caspase-3 antibody and measured active caspase-3 by FACS.

[2] = system: TNFα-induced NFκB activation in 293 cells; assay: NFκB/FL reporter assay; assay type: cell-based; details: TNFα 10 ng/ml, 7 h
Procedure: 293 cells transiently transfected with either NFκB/FL (firefly luciferase reporter construct under control of an NFκB-driven promoter) or control CMV promoter-driven FL reporter construct were treated with compounds and TNFα (10 ng/ml) for 7 h. Upon the addition of luciferin, bioluminescence was measured in cell lysates using a luminometer. Results can be seen in FIG. 20.
293 cells transiently transfected with either NFκB/FL or control FL reporter genes were treated with compounds and TNFα (10 ng/ml) for 7 h. Upon the addition of luciferin, bioluminescence was measured in cell lysates using a luminometer.

HeLa cells = assay: Cell surface HSP90 staining; assay type: cell-based, human
Text: Cell surface HSP90 was detected by staining with purified anti-HSP90 mAb (Stressgen), followed by PE-conjugated anti-mouse IgG1. The data were acquired with a FACSCalibur and analyzed using CellQuest software.

Row | SMILES | proteasome inhibition by 4UbFL stabilization (relative potency) [1] | active caspase-3 (U266 cells) | active caspase-3 (NCI-H929 cells) | TNFα-induced NFκB activation [2] | surface display of HSP90 (HeLa cells)
1 | CC(=O)N[C@@H](CCCCN)C(=O)N1C/C(=C\c2ccc(Cl)c(Cl)c2)C(=O)/C(=C/c2ccc(Cl)c(Cl)c2)C1.Cl [RA195Ac] | more potent than the parent molecule RA195 | caused an increase in caspase-3 expression | caused an increase in caspase-3 expression | inhibited TNFα-induced NFκB activation | 
2 | Cl.NCCCC[C@H](NC(=O)OCc1ccccc1Cl)C(=O)N1C/C(=C\c2ccc([N+](=O)[O-])cc2)C(=O)/C(=C/c2ccc([N+](=O)[O-])cc2)C1 [RA195Bn] | more potent than the parent molecule RA195 | caused an increase in caspase-3 expression | caused an increase in caspase-3 expression |  | 
3 | N.N.[Cl][Pt][Cl] [cisplatin] |  |  |  |  | did not induce surface display of HSP90
